US7572786B2, “Substituted 1-piperidin-3-yl-4-piperidin-4-yl-piperazine derivatives and their use as neurokinin antagonists” (Janssen Pharmaceutica, N.V., priority 2002, dated 2009)

Assays:
Assay type in all cases: cell-based
[1] = target: T1, NK3 (Homo sapiens, UniProt P29371); assay: Signal transduction (ST), intracellular Ca++ (FLIPR), NK3; conditions: for IC50: read-out: pIC50 NK3 (converted)
T1 sequence (P29371 1-465): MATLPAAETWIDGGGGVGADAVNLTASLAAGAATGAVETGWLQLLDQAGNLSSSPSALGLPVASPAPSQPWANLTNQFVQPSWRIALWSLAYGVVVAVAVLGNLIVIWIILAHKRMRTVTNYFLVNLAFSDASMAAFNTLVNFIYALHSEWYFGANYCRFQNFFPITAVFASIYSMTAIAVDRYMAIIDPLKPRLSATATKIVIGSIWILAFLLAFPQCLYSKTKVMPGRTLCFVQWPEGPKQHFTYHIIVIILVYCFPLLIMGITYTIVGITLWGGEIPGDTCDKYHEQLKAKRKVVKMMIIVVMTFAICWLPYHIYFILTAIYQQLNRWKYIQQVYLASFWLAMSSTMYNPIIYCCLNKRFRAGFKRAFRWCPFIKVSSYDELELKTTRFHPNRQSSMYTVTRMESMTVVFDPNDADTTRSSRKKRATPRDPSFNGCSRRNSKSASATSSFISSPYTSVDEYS
Description: [The source words this procedure for another target and reports this target under the same test.] (§1) This test evaluates in vitro functional NK1 antagonistic activity. For the measurements of intracellular Ca^++ concentrations the cells were grown on 96-well (black wall/transparent bottom) plates from Costar for 2 days until they reached confluence. The cells were loaded with 2 μM Fluo3 in DMEM containing 0.1% BSA and 2.5 mM probenecid for 1 h at 37° C. […] The cells were preincubated with a concentration range of antagonists for 20 min at RT and Ca^++-signals after addition of the agonists were measured in a Fluorescence Image Plate Reader (FLIPR from Molecular Devices, Crawley, England). The peak of the Ca^++-transient was considered as the relevant signal and the mean values of corresponding wells were analysed as described below.
(§2) The sigmoidal dose response curves were analysed by computerised curve-fitting, using the GraphPad Program. […] For antagonist responses the IC50-value was calculated using non-linear regression.

[2] = target: T2, NK2 (Homo sapiens, UniProt P21452); assay: Signal transduction (ST), intracellular Ca++ (FLIPR), NK2; conditions: for IC50: read-out: pIC50 NK2 (converted)
T2 sequence (P21452 1-398): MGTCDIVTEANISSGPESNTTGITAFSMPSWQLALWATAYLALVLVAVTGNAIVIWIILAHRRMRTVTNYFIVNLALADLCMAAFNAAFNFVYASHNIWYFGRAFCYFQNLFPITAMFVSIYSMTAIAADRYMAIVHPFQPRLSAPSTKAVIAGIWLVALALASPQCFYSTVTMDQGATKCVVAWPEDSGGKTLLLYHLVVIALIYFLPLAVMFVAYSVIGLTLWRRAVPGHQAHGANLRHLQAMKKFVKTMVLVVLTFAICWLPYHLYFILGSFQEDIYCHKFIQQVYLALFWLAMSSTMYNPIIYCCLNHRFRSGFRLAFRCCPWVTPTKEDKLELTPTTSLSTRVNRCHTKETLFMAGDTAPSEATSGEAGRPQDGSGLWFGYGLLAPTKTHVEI
Description: [The source words this procedure for another target and reports this target under the same test.] as §1, §2

[3] = target: NK1 (Homo sapiens, UniProt P25103); assay: Signal transduction (ST), intracellular Ca++ (FLIPR), NK1 antagonism; conditions: for IC50: read-out: pIC50 NK1 (converted)
Description: as §1, §2

Chain of NK1 (P25103 whole entry): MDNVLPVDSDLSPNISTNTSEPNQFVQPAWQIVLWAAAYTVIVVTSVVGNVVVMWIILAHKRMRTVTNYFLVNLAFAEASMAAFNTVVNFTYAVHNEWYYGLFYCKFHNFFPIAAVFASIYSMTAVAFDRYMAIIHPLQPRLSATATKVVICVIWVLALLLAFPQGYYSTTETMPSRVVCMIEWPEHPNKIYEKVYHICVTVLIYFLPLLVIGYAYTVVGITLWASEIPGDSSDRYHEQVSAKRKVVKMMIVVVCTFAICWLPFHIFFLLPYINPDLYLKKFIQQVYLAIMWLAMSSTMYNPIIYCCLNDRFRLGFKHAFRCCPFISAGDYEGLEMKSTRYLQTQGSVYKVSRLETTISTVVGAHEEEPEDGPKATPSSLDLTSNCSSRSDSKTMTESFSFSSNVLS

SMILES | IC50 [1] [nM] | IC50 [2] [nM] | IC50 [3] [nM] | pIC50 NK3 [1] | pIC50 NK2 [2] | pIC50 NK1 [3]
CC(C(=O)N1CCCC(N2CCN([C@H]3CCN(C(=O)c4cc(C(F)(F)F)cc(C(F)(F)F)c4)[C@H](Cc4ccccc4)C3)CC2)C1)c1ccccc1 (stereo partly drawn) [Compound 48] | 631 | 1000 | 31.6 |  |  | 
O=C(c1cc(C(F)(F)F)cc(C(F)(F)F)c1)N1CC[C@H](N2CCN(C3CCCN(S(=O)(=O)c4ccc(-c5cnco5)s4)C3)CC2)C[C@H]1Cc1ccccc1 (stereo partly drawn) [Compound 37] | 631 | 2000 | 12.6 |  |  | 
O=C(c1cc(C(F)(F)F)cc(C(F)(F)F)c1)N1CC[C@H](N2CCN(C3CCCN(S(=O)(=O)c4ccc(CO)s4)C3)CC2)C[C@H]1Cc1ccccc1 (stereo partly drawn) [Compound 92] | 158 | 501 | 12.6 |  |  | 
O=C(c1cc(C(F)(F)F)cc(C(F)(F)F)c1)N1CC[C@H](N2CCN(C3CCCN(S(=O)(=O)c4c(Cl)nc5sccn45)C3)CC2)C[C@H]1Cc1ccccc1 (stereo partly drawn) [Compound 46] | 794 | 501 | 15.8 |  |  | 
O=C(C1CC1)N1CCCC(N2CCN([C@H]3CCN(C(=O)c4cc(C(F)(F)F)cc(C(F)(F)F)c4)[C@H](Cc4ccccc4)C3)CC2)C1 (stereo partly drawn) [Compound 15] | 158 | 6310 | 12.6 |  |  | 
Cc1nc(C)c(S(=O)(=O)N2CCCC(N3CCN([C@H]4CCN(C(=O)c5cc(C(F)(F)F)cc(C(F)(F)F)c5)[C@H](Cc5ccccc5)C4)CC3)C2)s1 (stereo partly drawn) [Compound 38] | 251 | 200 | 6.31 |  |  | 
Cc1ccccc1S(=O)(=O)N1CCCC(N2CCN([C@H]3CCN(C(=O)c4cc(C(F)(F)F)cc(C(F)(F)F)c4)[C@H](Cc4ccccc4)C3)CC2)C1 (stereo partly drawn) [Compound 30] | 631 | 631 | 15.8 |  |  | 
COc1cccc(S(=O)(=O)N2CCCC(N3CCN([C@H]4CCN(C(=O)c5cc(C(F)(F)F)cc(C(F)(F)F)c5)[C@H](Cc5ccccc5)C4)CC3)C2)c1 (stereo partly drawn) [Compound 69] |  |  |  | 6.2 | 5.6 | 7.8
COc1ccc(S(=O)(=O)N2CCCC(N3CCN([C@H]4CCN(C(=O)c5cc(C(F)(F)F)cc(C(F)(F)F)c5)[C@H](Cc5ccccc5)C4)CC3)C2)cc1 (stereo partly drawn) [Compound 72] | 1260 | 2000 | 20 |  |  | 
O=C(Cc1cccs1)N1CCCC(N2CCN([C@H]3CCN(C(=O)c4cc(C(F)(F)F)cc(C(F)(F)F)c4)[C@H](Cc4ccccc4)C3)CC2)C1 (stereo partly drawn) [Compound 43] | 501 | 2000 | 10 |  |  | 
O=C(c1cccs1)N1CCCC(N2CCN([C@H]3CCN(C(=O)c4cc(C(F)(F)F)cc(C(F)(F)F)c4)[C@H](Cc4ccccc4)C3)CC2)C1 (stereo partly drawn) [Compound 20] | 251 | 2000 | 31.6 |  |  | 
O=C(c1cc(C(F)(F)F)cc(C(F)(F)F)c1)N1CC[C@H](N2CCN(C3CCCN(c4cnccn4)C3)CC2)C[C@H]1Cc1ccccc1 (stereo partly drawn) [Compound 26] | 794 | 7940 | 7.94 |  |  | 
CC(=O)OCC(c1ccccc1Cl)N1CCCC(N2CCN(C3CCN(C(=O)c4cc(C(F)(F)F)cc(C(F)(F)F)c4)C(Cc4ccccc4)C3)CC2)C1 (stereo not drawn) [Compound 124] | 2510 | 5010 | 398 |  |  | 
O=C(c1cc(C(F)(F)F)cc(C(F)(F)F)c1)N1CCC(N2CCN(C3CCCN(S(=O)(=O)Cc4ccccc4)C3)CC2)CC1Cc1ccccc1 (stereo not drawn) [Compound 49] | 316 | 631 | 15.8 |  |  | 
O=C(c1cc(C(F)(F)F)cc(C(F)(F)F)c1)N1CC[C@H](N2CCN(C3CCCN(S(=O)(=O)c4ccc(CCO)s4)C3)CC2)C[C@H]1Cc1ccccc1 (stereo partly drawn) [Compound 86] |  |  |  | 6.3 | 6.4 | 8.2
O=C(c1cc(C(F)(F)F)cc(C(F)(F)F)c1)N1CC[C@H](N2CCN(C3CCCN(C(=O)C4(O)CC4)C3)CC2)C[C@H]1Cc1ccccc1 (stereo partly drawn) [Compound 61] | 6310 | 3160 | 7.94 |  |  | 
COc1ccc(S(=O)(=O)N2CCCC(N3CCN([C@H]4CCN(C(=O)c5cc(C(F)(F)F)cc(C(F)(F)F)c5)[C@H](Cc5ccccc5)C4)CC3)C2)s1 (stereo partly drawn) [Compound 95] | 1260 | 3160 | 31.6 |  |  | 

SMILES | IC50 [1] [nM] | IC50 [2] [nM] | IC50 [3] [nM] | pIC50 NK3 [1] | pIC50 NK2 [2] | pIC50 NK1 [3]
CC(C)(C)OC(=O)N1CCC[C@@H]1C(=O)N1CCCC(N2CCN([C@H]3CCN(C(=O)c4cc(C(F)(F)F)cc(C(F)(F)F)c4)[C@H](Cc4ccccc4)C3)CC2)C1 (stereo partly drawn) [Compound 53] |  |  |  | 7.3 | 5.7 | 8.3
O=C(c1c(Cl)cccc1Cl)N1CCCC(N2CCN([C@H]3CCN(C(=O)c4cc(C(F)(F)F)cc(C(F)(F)F)c4)[C@H](Cc4ccccc4)C3)CC2)C1 (stereo partly drawn) [Compound 64] | 794 | 6310 | 12.6 |  |  | 
O=C(c1cc(C(F)(F)F)cc(C(F)(F)F)c1)N1CC[C@H](N2CCN(C3CCCN(S(=O)(=O)c4ccc(CCOCc5ccccc5)s4)C3)CC2)C[C@H]1Cc1ccccc1 (stereo partly drawn) [Compound 84] | 1260 | 501 | 251 |  |  | 
O=C(c1cc(C(F)(F)F)cc(C(F)(F)F)c1)N1CC[C@H](N2CCN(C3CCCN(S(=O)(=O)c4ccccc4)C3)CC2)C[C@H]1Cc1ccccc1 (stereo partly drawn) [Compound 28] | 158 | 2000 | 10 |  |  | 
O=C(c1cc(C(F)(F)F)cc(C(F)(F)F)c1)N1CCC(N2CCN(C3CCCN(C(CO)c4cccs4)C3)CC2)CC1Cc1ccccc1 (stereo not drawn) [Compound 77] | 3160 | 2000 | 12.6 |  |  | 
CC(C)N/C(=N\C#N)N1CCCC(N2CCN(C3CCN(C(=O)c4cc(C(F)(F)F)cc(C(F)(F)F)c4)C(Cc4ccccc4)C3)CC2)C1 (stereo not drawn) [Compound 91] | 3980 | 1000 | 10 |  |  | 
O=C(c1sccc1COCc1ccccc1)N1CCCC(N2CCN([C@H]3CCN(C(=O)c4cc(C(F)(F)F)cc(C(F)(F)F)c4)[C@H](Cc4ccccc4)C3)CC2)C1 (stereo partly drawn) [Compound 88] | 631 | 2510 | 39.8 |  |  | 
O=C(c1cc(C(F)(F)F)cc(C(F)(F)F)c1)N1CC[C@H](N2CCN(C3CCCN(C(CO)c4ccoc4)C3)CC2)C[C@H]1Cc1ccccc1 (stereo partly drawn) [Compound 79] | 1000 | 1580 | 12.6 |  |  | 
O=C(c1ccc(O)cc1)N1CCCC(N2CCN(C3CCN(C(=O)c4cc(C(F)(F)F)cc(C(F)(F)F)c4)C(Cc4ccccc4)C3)CC2)C1 (stereo not drawn) [Compound 67] | 1580 | 5010 | 6.31 |  |  | 
O=C(c1ccccc1F)N1CCCC(N2CCN([C@H]3CCN(C(=O)c4cc(C(F)(F)F)cc(C(F)(F)F)c4)[C@H](Cc4ccccc4)C3)CC2)C1 (stereo partly drawn) [Compound 9] | 794 | 2510 | 15.8 |  |  | 
O=C(Nc1ccc(Cl)cc1)N1CCCC(N2CCN([C@H]3CCN(C(=O)c4cc(C(F)(F)F)cc(C(F)(F)F)c4)[C@H](Cc4ccccc4)C3)CC2)C1 (stereo partly drawn) [Compound 74] |  |  |  | 5.5 | 5.4 | 8.0
O=C(c1sccc1CO)N1CCCC(N2CCN([C@H]3CCN(C(=O)c4cc(C(F)(F)F)cc(C(F)(F)F)c4)[C@H](Cc4ccccc4)C3)CC2)C1 (stereo partly drawn) [Compound 97] | 2510 | 3980 | 10 |  |  | 
O=C(c1cc(CCOCc2ccccc2)cs1)N1CCCC(N2CCN([C@H]3CCN(C(=O)c4cc(C(F)(F)F)cc(C(F)(F)F)c4)[C@H](Cc4ccccc4)C3)CC2)C1 (stereo partly drawn) [Compound 99] |  |  |  | 5.5 | 5.2 | 6.7
O=C(c1cc(C(F)(F)F)cc(C(F)(F)F)c1)N1CC[C@H](N2CCN(C3CCCN(S(=O)(=O)c4ccc5nonc5c4)C3)CC2)C[C@H]1Cc1ccccc1 (stereo partly drawn) [Compound 45] | 398 | 1580 | 20 |  |  | 
Cc1noc(C)c1S(=O)(=O)N1CCCC(N2CCN([C@H]3CCN(C(=O)c4cc(C(F)(F)F)cc(C(F)(F)F)c4)[C@H](Cc4ccccc4)C3)CC2)C1 (stereo partly drawn) [Compound 39] | 501 | 631 | 6.31 |  |  | 
O=C(c1cc(C(F)(F)F)cc(C(F)(F)F)c1)N1CC[C@H](N2CCN(C3CCCN(S(=O)(=O)c4csc(COCc5ccccc5)c4)C3)CC2)C[C@H]1Cc1ccccc1 (stereo partly drawn) [Compound 104] | 316 | 1260 | 126 |  |  | 
